ChEMBL document CHEMBL5584239, “Discovery of novel quinoline scaffold selective estrogen receptor degraders (SERDs) for treatment of ER positive breast cancer with enhanced antiproliferative bioactivity through immunogenic cell death (ICD) effects” (Eur J Med Chem, 2024)
Active and inactive are the calls of the source. The calls are words filed in the database; no cut-off is given here.

Tests used:
MCF7 [1] = assay: Induction of immunogenic cell death in human MCF7 cells assessed as HMGB1 release from nucleus at 10 uM by FITC staining based flow cytometry; type: functional
[2] = Cmax in rat at 5 mg/kg, iv measured for 1 to 24 hrs by LC-MS analysis; type: ADME, organism-based; details: in vivo, time 1-24 hrs
[3] = target: T1, Estrogen receptor (Homo sapiens) (UniProt P03372); assay: Induction of estrogen receptor degradation in estradiol-stimulated human MCF7 cells assessed as decrease in PGR mRNA level incubated for 24 hrs by RT-qPCR analysis; type: cell-based; details: dose 1-10 µM
T1 sequence (whole entry): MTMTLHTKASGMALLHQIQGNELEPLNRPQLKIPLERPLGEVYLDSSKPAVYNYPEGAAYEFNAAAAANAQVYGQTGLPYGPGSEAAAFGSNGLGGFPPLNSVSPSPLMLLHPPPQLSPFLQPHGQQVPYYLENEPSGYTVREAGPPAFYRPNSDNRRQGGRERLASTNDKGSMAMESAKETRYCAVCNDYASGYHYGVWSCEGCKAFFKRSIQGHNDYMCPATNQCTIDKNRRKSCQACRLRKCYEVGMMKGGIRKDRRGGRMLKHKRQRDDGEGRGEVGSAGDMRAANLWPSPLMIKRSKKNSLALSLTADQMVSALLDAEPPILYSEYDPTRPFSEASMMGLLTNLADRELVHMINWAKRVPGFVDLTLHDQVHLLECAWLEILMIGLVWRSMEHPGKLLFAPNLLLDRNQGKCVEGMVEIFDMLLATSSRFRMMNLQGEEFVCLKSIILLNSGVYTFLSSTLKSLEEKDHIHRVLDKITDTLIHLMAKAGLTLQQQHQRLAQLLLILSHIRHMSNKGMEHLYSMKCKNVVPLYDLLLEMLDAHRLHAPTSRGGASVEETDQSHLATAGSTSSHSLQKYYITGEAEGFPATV

[4] = Toxicity in nude mouse model xenografted with human MCF7 cells assessed as morphological change in liver at 60 mg/kg, po administered daily via gavage for 30 days by H and E staining based analysis; type: organism-based; details: in vivo, 720 h, time 30 day
MCF7 [5] = assay: Induction of endoplasmic reticulum stress effect in human MCF7 cells assessed as change in ATF4 level at 10 uM incubated for 3 to 24 hrs by Western blot analysis; type: functional, cell-based; details: time 3-24 hrs
[6] = target: T1, Estrogen receptor (Homo sapiens); assay: Induction of estrogen receptor degradation in MG-132-treated human MCF7 cells at 10 uM incubated for 4 to 6 hrs by Western blot analysis; type: cell-based; details: time 4-6 hrs
[7] = target: T1, Estrogen receptor (Homo sapiens); assay: Induction of estrogen receptor degradation in estradiol-stimulated human MCF7 cells assessed as decrease in GREB1 mRNA level incubated for 24 hrs by RT-qPCR analysis; type: cell-based; details: dose 1-10 µM
[8] = Apparent volume of distribution in rat at 5 mg/kg, iv measured for 1 to 24 hrs by LC-MS analysis; type: ADME, organism-based; details: in vivo, time 1-24 hrs, read-out: Vz
MCF7 [9] = assay: Induction of cell cycle arrest at G0/G1 phase in human MCF7 cells at 10 uM incubated for 24 hrs by PI/RNase staining based flow cytometry (reference value: 53.5 +/- 1.96 %); type: functional
MCF7 [10] = assay: Induction of immunogenic cell death in human MCF7 cells assessed as HMGB1 release from nucleus at 10 uM by Western blot analysis; type: functional, cell-based
MCF7 [11] = assay: Antiproliferative activity against human MCF7 cells incubated for 5 days by MTT assay; type: functional, cell-based; details: MCF7, 120 h
[12] = Tmax in rat at 5 mg/kg, iv measured for 1 to 24 hrs by LC-MS analysis; type: ADME, organism-based; details: in vivo, time 1-24 hrs
Uterus = assay: Effect on immature Sprague-Dawley rat uterus assessed as reduction in uterine wet weight at 60 mg/kg, po qd for 2 days by H and E staining based analysis; type: functional, organism-based; details: time 2.0 day
[13] = C0 in rat at 5 mg/kg, iv measured for 1 to 24 hrs by LC-MS analysis; type: ADME, organism-based; details: in vivo, time 1-24 hrs
[14] = Oral bioavailability in rat at 20 mg/kg measured for 1 to 24 hrs by LC-MS analysis; type: ADME, organism-based; details: in vivo, time 1-24 hrs
MCF7 [15] = assay: Induction of endoplasmic reticulum stress effect in human MCF7 cells assessed as change in pEIF-2alpha level at 10 uM incubated for 3 to 24 hrs by Western blot analysis; type: functional, cell-based; details: time 3-24 hrs
[16] = Tmax in rat at 20 mg/kg, po measured for 1 to 24 hrs by LC-MS analysis; type: ADME, organism-based; details: in vivo, time 1-24 hrs
MCF7 [17] = assay: Induction of ROS production in human MCF7 cells measured after 6 to 24 hrs by flow cytometry; type: functional, cell-based; details: time 6-24 hrs
MCF7 [18] = assay: Antitumor activity against human MCF7 cells xenografted in nude mouse model assessed as reduction in PR level at 60 mg/kg, po administered daily via gavage for 30 days in presence of ribociclib by IHC analysis; type: functional, organism-based; details: time 30.0 day
[19] = AUC (0 to t) in rat at 5 mg/kg, iv measured for 1 to 24 hrs by LC-MS analysis; type: ADME, organism-based; details: in vivo, time 1-24 hrs
MCF7 [20] = assay: Induction of endoplasmic reticulum stress effect in human MCF7 cells assessed as change in CHOP level at 10 uM incubated for 24 hrs by immunofluorescence based analysis; type: functional, cell-based
Ishikawa = assay: Antiproliferative activity against human Ishikawa cells at 20 uM incubated for 3 days by MTT assay relative to control; type: functional; details: 72 h, time 3 day
MCF7 [21] = assay: Induction of immunogenic cell death in human MCF7 cells assessed as HSP90 exposure at 10 uM by Western blot analysis; type: functional, cell-based
MCF7 [22] = assay: Induction of endoplasmic reticulum stress effect in human MCF7 cells assessed as change in calnexin level at 10 uM incubated for 3 to 24 hrs by Western blot analysis; type: functional, cell-based; details: time 3-24 hrs
MCF7 [23] = assay: Induction of immunogenic cell death in human MCF7 cells assessed as HMGB1 release from nucleus at 10 uM by fluorescence microscopy; type: functional, cell-based
[24] = target: T1, Estrogen receptor (Homo sapiens); assay: Induction of estrogen receptor degradation in human MCF7 cells incubated for 24 hrs by Western blot analysis; type: cell-based; details: dose 0.001-10 µM
MCF7 [25] = assay: Synergistic antiproliferative activity against human MCF7 cells at 0.1 to 10000 nM incubated for 5 days in presence of Ribociclib by MTT assay; type: functional, cell-based; details: dose 0.1-10000 nM, time 5.0 day
MCF7 [26] = assay: Induction of immunogenic cell death in human MCF7 cells assessed as CRT translocation at 10 uM by Western blot analysis; type: functional, cell-based
MCF7 [27] = assay: Induction of immunogenic cell death in human MCF7 cells assessed as CRT translocation at 10 uM by fluorescence microscopy; type: functional, cell-based
[28] = target: T1, Estrogen receptor (Homo sapiens); assay: Induction of estrogen receptor degradation in human MCF7 cells expressing ERE-luciferase at 10 uM incubated for 24 hrs by luminescence based analysis; type: cell-based
MCF7 [29] = assay: Induction of endoplasmic reticulum stress effect in human MCF7 cells assessed as change in EIF-2alpha level at 10 uM incubated for 3 to 24 hrs by Western blot analysis; type: functional, cell-based; details: time 3-24 hrs
[30] = MRT (0 to infinity) in rat at 20 mg/kg, po measured for 1 to 24 hrs by LC-MS analysis; type: ADME, organism-based; details: in vivo, time 1-24 hrs
[31] = Toxicity in nude mouse model xenografted with human MCF7 cells assessed as morphological change in heart at 60 mg/kg, po administered daily via gavage for 30 days by H and E staining based analysis; type: organism-based; details: in vivo, 720 h, time 30 day

Structure (SMILES): CCc1ccccc1C(=O)c1cnc2cc(O)ccc2c1Oc1ccc(/C=C/C(=O)O)cc1
- Activity (MCF7 [1]): Active
- Cmax [2]: 10400 ng/mL
- Activity [3]: Dose-Dependent Effect
- Activity [4]: Non-Toxic
- Activity (MCF7 [5]): Active
- Activity [6]: inactive
- Activity [7]: Dose-Dependent Effect
- Vd [8]: 2 L/kg
- Activity (MCF7 [9]): 59.7%
- Activity (MCF7 [10]): Active
- IC50 (MCF7 [11]): 150 nM
- Tmax [12]: 4.98 min
- Activity (Uterus): inactive
- C0 [13]: 31300 ng/mL
- bioavailability [14]: 5.32%
- Activity (MCF7 [15]): Active
- Tmax [16]: 15 min
- Activity (MCF7 [17]): inactive
- Activity (MCF7 [18]): Active
- AUC(0-t) [19]: 3050 ng·h/mL
- Activity (MCF7 [20]): Active
- inhibition at 20 µM (Ishikawa): 14%
- Activity (MCF7 [21]): Active
- Activity (MCF7 [22]): Active
- Activity (MCF7 [23]): Active
- Activity [24]: Dose-Dependent Effect
- Activity (MCF7 [25]): Active
- Activity (MCF7 [26]): Active
- Activity (MCF7 [27]): Active
- Activity [28]: Active
- Activity (MCF7 [29]): Active
- MRT inf [30]: 160 min
- Activity [31]: Non-Toxic
